Laboratory results as given in PMC12408501, “A novel fluorescent probe, triphenylamine rhodamine-3-acetic acid (mRA) for the detection of Amyloid-β aggregates in Alzheimer's disease” (Frontiers in Neuroscience, 2025).

Target: T1, Amyloid-β (Aβ1-42) aggregates (Homo sapiens, UniProt P05067)
T1 construct: gene APP; Aβ1-42 (aggregates)
Assay: fluorescence enhancement titration (supported by far-UV CD and van't Hoff analysis)
Assay type: binding

T1 sequence (P05067 672-713): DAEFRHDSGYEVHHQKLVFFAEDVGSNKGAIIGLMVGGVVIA

Compound `O=C(O)CN1C(=O)/C(=C/c2ccc(N(c3ccccc3)c3ccccc3)cc2)SC1=S` [mRA, triphenylamine rhodamine-3-acetic acid] has a Kd of 341 ± 17 nM.
